Source: the NIST ThermoML archive (doi:10.1016/j.tca.2015.07.011)
Several values for one entry are separate records, joined by “and”; a condition that tells them apart may be missing. Identical values can stand only once. Numbers after ± are expanded uncertainties.

Legend:
[1] = for vapor or sublimation pressure: Transpiration method; for mass density: 293 K, 101.33 kPa, Pycnometric method
[2] = Molar enthalpy of transition or fusion; settings: DSC

COc1ccccc1C(=O)O [2-methoxybenzoic acid]
[1], Crystal
Settings | vapor or sublimation pressure [kPa]
342.4 K | 0.00098 ± 8e-05
346.2 K | 0.00152 ± 0.0001
348.2 K | 0.00181 ± 0.00012
350.3 K | 0.00221 ± 0.00015
352.2 K | 0.00272 ± 0.00018
354.3 K | 0.00347 ± 0.00023
356.2 K | 0.00419 ± 0.00028
358.9 K | 0.00536 ± 0.00035
361.4 K | 0.0068 ± 0.00048
363.2 K | 0.00813 ± 0.00057
366.2 K | 0.01064 ± 0.00072
367.9 K | 0.01262 ± 0.00085
371.5 K | 0.01728 ± 0.0011

CC(C)COc1ccc(C(=O)O)cc1 [4-iso-butoxybenzoic acid]
Settings | Molar enthalpy of transition or fusion, Crystal 1 [kcal/mol] | Molar enthalpy of transition or fusion, Crystal 2 [kcal/mol] | Normal melting temperature, Crystal 1, DTA [°C] | Triple point temperature, Crystal 2, DTA [K] | mass density, Crystal [kg/m3]
[1] | – | – | 142.2 ± 1.1 | 412.5 ± 1.1 | 1130 ± 200
[2] | 4.52 ± 0.143 | 0.669 ± 0.0956 | – | – | –

[1]
Settings | Normal melting temperature [°C] | vapor or sublimation pressure
342.3 K, Crystal 2 | – | 7e-05 ± 2e-05 kPa
343.5 K, Crystal 2 | – | 8e-05 ± 2e-05 kPa
346.4 K, Crystal 2 | – | 0.00011 ± 2e-05 kPa
348.5 K, Crystal 2 | – | 0.00014 ± 2e-05 kPa
349.2 K, Crystal 2 | – | 0.00015 ± 2e-05 kPa
353.4 K, Crystal 2 | – | 0.00026 ± 2e-05 kPa
353.6 K, Crystal 2 | – | 0.00025 ± 2e-05 kPa
356.9 K, Crystal 2 | – | 0.00038 ± 3e-05 kPa
359.2 K, Crystal 2 | – | 0.00046 ± 4e-05 kPa
360.4 K, Crystal 2 | – | 0.00055 ± 5e-05 kPa
361.6 K, Crystal 2 | – | 0.00066 ± 5e-05 kPa
363.4 K, Crystal 2 | – | 0.00078 ± 5e-05 kPa
363.5 K, Crystal 2 | – | 0.00078 ± 5e-05 kPa
365.4 K, Crystal 2 | – | 0.00096 ± 7e-05 kPa
365.9 K, Crystal 2 | – | 0.00102 ± 7e-05 kPa
367.8 K, Crystal 2 | – | 0.00122 ± 9e-05 kPa
368.2 K, Crystal 2 | – | 0.00119 ± 8e-05 kPa
368.7 K, Crystal 2 | – | 0.00134 ± 0.0001 kPa
368.9 K, Crystal 2 | – | 0.0014 ± 0.0001 kPa
370.7 K, Crystal 2 | – | 0.00162 ± 0.00012 kPa
373.1 K, Crystal 2 | – | 0.00199 ± 0.00013 kPa
373.3 K, Crystal 2 | – | 0.00216 ± 0.00015 kPa
378.6 K, Crystal 2 | – | 0.00342 ± 0.00023 kPa
379.3 K, Crystal 2 | – | 0.00369 ± 0.00025 kPa
381 K, Crystal 2 | – | 0.00422 ± 0.00027 kPa
388.5 K, Crystal 2 | – | 0.0089 ± 0.0006 kPa
390.5 K, Crystal 2 | – | 0.01034 ± 0.0007 kPa
393.6 K, Crystal 2 | – | 0.01381 ± 0.00092 kPa and 0.01388 ± 0.00092 kPa
393.7 K, Crystal 2 | – | 0.0142 ± 0.00094 kPa
393.8 K, Crystal 2 | – | 0.01384 ± 0.00092 kPa
395.2 K, Crystal 2 | – | 0.01617 ± 0.0011 kPa
396.9 K, Crystal 2 | – | 0.01961 ± 0.0013 kPa
397.4 K, Crystal 2 | – | 0.02032 ± 0.0013 kPa
398.6 K, Crystal 2 | – | 0.02126 ± 0.0014 kPa
399 K, Crystal 2 | – | 0.02336 ± 0.0015 kPa
399.9 K, Crystal 2 | – | 0.02413 ± 0.0016 kPa
402.6 K, Crystal 2 | – | 0.03218 ± 0.002 kPa
403.2 K, Crystal 2 | – | 0.03283 ± 0.0021 kPa
Crystal, visual observation | 140.00 ± 3 | –

CCCCOc1ccc(C(=O)O)cc1 [4-butoxybenzoic acid]
[1], Crystal
Settings | vapor or sublimation pressure
377.8 K | 0.00164 ± 0.00012 kPa
383.4 K | 0.00285 ± 0.0002 kPa
391 K | 0.00586 ± 0.00038 kPa
396.2 K | 0.00973 ± 0.00066 kPa
399.3 K | 0.01214 ± 0.00082 kPa
401.3 K | 0.01536 ± 0.001 kPa
406.4 K | 0.02366 ± 0.0015 kPa
411.4 K | 0.03676 ± 0.0024 kPa
415.4 K | 0.04923 ± 0.0032 kPa
417.3 K | 0.05826 ± 0.0037 kPa and 0.05838 ± 0.0037 kPa

CC(C)COc1ccccc1C(=O)O [2-iso-butoxybenzoic acid]
Settings | mass density [kg/m3]
[1], Liquid | 1100 ± 100

[1], Liquid
Settings | vapor or sublimation pressure
343.9 K | 0.0008 ± 7e-05 kPa
353.1 K | 0.00176 ± 0.00012 kPa
363.2 K | 0.0041 ± 0.00027 kPa
365.2 K | 0.0048 ± 0.00031 kPa
369.2 K | 0.00662 ± 0.00046 kPa
371.2 K | 0.00775 ± 0.00056 kPa
371.4 K | 0.00817 ± 0.00056 kPa and 0.00791 ± 0.00054 kPa
371.5 K | 0.00808 ± 0.00058 kPa
374.2 K | 0.01017 ± 0.00068 kPa
374.4 K | 0.00999 ± 0.00066 kPa
376.5 K | 0.01179 ± 0.00078 kPa
377.3 K | 0.01245 ± 0.00084 kPa
378.5 K | 0.01391 ± 0.00092 kPa
379.2 K | 0.01467 ± 0.00096 kPa
380.1 K | 0.01546 ± 0.001 kPa
380.2 K | 0.01553 ± 0.001 kPa
382.4 K | 0.0177 ± 0.0011 kPa
384.2 K | 0.02038 ± 0.0013 kPa
385.8 K | 0.02237 ± 0.0014 kPa
388.1 K | 0.02622 ± 0.0017 kPa
390.3 K | 0.03064 ± 0.002 kPa
393 K | 0.03639 ± 0.0023 kPa
395.2 K | 0.04478 ± 0.0029 kPa
398.1 K | 0.05373 ± 0.0034 kPa

CC(C)COc1cccc(C(=O)O)c1 [3-iso-butoxybenzoic acid]
Crystal
Settings | Molar enthalpy of transition or fusion [kcal/mol] | mass density [kg/m3]
[1] | – | 1130 ± 200
[2] | 6.02 ± 0.167 | –

[1]
Settings | Normal melting temperature [°C] | vapor or sublimation pressure [kPa]
354.8 K, Liquid | – | 0.00162 ± 0.00012
356.2 K, Liquid | – | 0.00181 ± 0.00012
357.4 K, Liquid | – | 0.00202 ± 0.00014
359.5 K, Liquid | – | 0.00238 ± 0.00015
361.2 K, Liquid | – | 0.00281 ± 0.00019
363 K, Liquid | – | 0.0032 ± 0.0002
364.2 K, Liquid | – | 0.00358 ± 0.00023
365.7 K, Liquid | – | 0.00406 ± 0.00027
368.3 K, Liquid | – | 0.00493 ± 0.00032
370.9 K, Liquid | – | 0.00601 ± 0.00043
372.7 K, Liquid | – | 0.00707 ± 0.00049
373.7 K, Liquid | – | 0.00763 ± 0.00053
375.3 K, Liquid | – | 0.00871 ± 0.00059
378.2 K, Liquid | – | 0.01099 ± 0.00074
380.1 K, Liquid | – | 0.013 ± 0.00086
382.7 K, Liquid | – | 0.01579 ± 0.001
Crystal, DTA | 80.4 ± 1.1 | –
Crystal, visual observation | 80.00 ± 3 | –
